Test results as given in patent US10138282B2, “Peptide antagonist of LL-37” (INDIANA UNIVERSITY RESEARCH AND TECHNOLOGY CORPORATION, priority 2014, dated 2018).
Entries after “also recorded” stand apart in the source; their conditions may differ.

What was measured:
in vitro = assay type: cell-based; conditions: human, Half-life of LL-37 in cells
Experimental: Acidification of endosomes can activate cathepsins that can cleave TLR3, 7, and 9 and increase signaling. We examined whether LL-37 would be subject to proteolysis, possibly by cathepsins. BEAS-2B cells were treated with LL-37 in the absence or presence of poly(I:C) for 15 min, then washed with phosphate-buffered saline and incubated with fresh medium. The cells were harvested over time, lysed and subjected to Western blot analysis. LL-37 accumulation decreased over time, with an estimated half-life of 1 h (FIG. 4A, 4B). Cells treated with ammonium chloride or the cathepsin inhibitor Z-FA-FMK had half-lives in excess of 12 h (FIG. 4A, 4B).

Toll-like receptor 9 = experiment: IL-6 production in BEAS-2B cells in the presence of ssDNA ligand ODN; assay type: cell-based, human
Reovirus dsRNA, Reo S4 = experiment: IL-6 production in BEAS-2B cells in the presence of Reovirus dsRNA Reo S4; assay type: cell-based, human
Experimental: (§1) IL-6 production was quantified by ELISA using the OptEIA™ kit (BD Biosciences). A typical assay used 2×10^4 BEAS-2B cells/well grown for 24 h in flat bottom 96-well plates. Poly(I:C) was added to a final concentration of 0.13 μg/ml. Antimicrobial peptides were added to the cell culture medium to a final concentration of 3 μM unless specified otherwise. All ELISA results shown were performed in triplicate and in at least three independent experiments.
Herein, we analyzed the LL-37 orthologs from Rhesus monkeys, pig, sheep, guinea pigs, rabbit, as well as mouse (FIG. 14A). All peptides were chemically synthesized and assayed for the induction of inflammatory cytokine IL-6 in the presence of the double-stranded RNA mimic, poly(I:C) or the Reovirus dsRNA, Reo S4 (FIGS. 14B and 14C). […] Importantly, all LL-37 orthologs tested had the ability to reduce IL-6 production in response to LPS (FIG. 14E).

TLR3 signaling = experiment: IL-6 production (ELISA) in BEAS-2B cells induced with poly(I:C); assay type: cell-based, human
Experimental: as §1
(§2) To better define how residues in LL-37 contribute to function, several variants derived from LL-37 were tested for: 1) repression of TLR4 signaling by LPS, 2) enhancement of TLR3 signaling by poly(I:C), and 3) binding to LL-37. Signaling by TLR3 and TLR4 were monitored using ELISA to detect IL-6 secreted into the medium of BEAS-2B cells.

[1] = tested on: Escherichia coli ATCC 25922; experiment: MIC assay, broth microdilution (CLSI); assay type: cell-based; conditions: E. coli ATCC 25922
Experimental: MIC assays were performed according to protocols for broth microdilution according to the Clinical Laboratory Standards Institute (CLSI, 2015. Methods for Dilution Antimicrobial susceptibility tests for bacterial that grow aerobically; Approved standard—tenth edition).

f-LL37 = molecular target: T1, f-LL37 (Homo sapiens, UniProt P49913); experiment: Fluorescence polarization, interaction of peptides with fluorescein-labeled LL-37; assay type: binding
T1 sequence (P49913 134-170 limits assumed): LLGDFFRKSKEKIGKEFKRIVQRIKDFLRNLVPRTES
Experimental: (§3) Peptide binding to poly(I:C) was analyzed by monitoring fluorescence polarization using the Synergy H1 microplate reader (BioTek). Fluorescein-labeled LL-37 was titrated to a 100 μL solution containing poly(I:C) and phosphate buffers at different pHs. Interactions between LL-37 and other peptides were analyzed using LL-37 labeled at the N-terminus with fluorescein (0.1 μM), and peptides were titrated from 1 nM to 1000 nM in phosphate buffer at pH 7.0. Interaction between poly(I:C) and different peptides was determined by titrating fluorescein-labeled poly(I:C) (0.1 μM) with peptides added to final concentrations of 10 to 500 nM in phosphate buffer at pH 7.4. All polarization assays were performed in triplicate.

[2] = Dynamic light scatter spectroscopy, hydrodynamic radius; assay type: physicochemical
Experimental: The hydrodynamic radii of LL-37 and other peptides were monitored by a Zetasizer Nano-S instrument (Malvern Instruments). All measurements were taken with 1 μM of peptide dissolved in phosphate buffer adjusted to the desired pH at 22° C.

FPRL-1 receptor = molecular target: T2, FPRL-1 receptor (Homo sapiens, UniProt P25090); experiment: IL-6 production in BEAS-2B cells knocked down with siRNA (FPRL-1, EGFR, control); assay type: cell-based
T2 construct: a human lung epithelial cell line that expresses endogenous FPRL-1; endogenous in cells; host or cells: BEAS-2B
T2 sequence (P25090 1-351): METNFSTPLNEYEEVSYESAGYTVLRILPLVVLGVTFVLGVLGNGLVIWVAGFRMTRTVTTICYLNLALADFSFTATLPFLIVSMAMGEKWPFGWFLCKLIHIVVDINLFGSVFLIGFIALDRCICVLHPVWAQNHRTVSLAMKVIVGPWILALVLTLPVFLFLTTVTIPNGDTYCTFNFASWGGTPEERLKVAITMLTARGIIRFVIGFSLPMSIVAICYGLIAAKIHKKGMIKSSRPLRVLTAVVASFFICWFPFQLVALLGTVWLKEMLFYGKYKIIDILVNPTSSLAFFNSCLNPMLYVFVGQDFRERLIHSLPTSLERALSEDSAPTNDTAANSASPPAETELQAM
Experimental: BEAS-2B cells were seeded at 2×10^6 cells per 6-well plate for 6 h prior to transfection with 30 nM of a pool of three siRNAs from Santa Cruz Biotechnology. Transfections were done using Lipofectamine 2000.
Cells were grown on poly-L-lysine (Life Technologies). The level of target mRNA was analyzed using qRT-PCR and normalized to the levels of GAPDH mRNA. The sequences of the primers will be made available upon request. Poly(I:C) was added 48 h after siRNA transfection and IL-6 levels in the culture media were collected 24 h later.
LL-37's enhancement of TLR3 signaling required trafficking of LL-37/poly(:C) to endosomes via the FPRL-1 receptor. Therefore, we examined whether LL-29 used the FPRL-1 receptor to enter cells. siRNA was used to knock down the expression of either FPRL-1, EGFR, or TLR3. […] Co-localization of fLL-37 and rpIC was reduced to less than a third of the control. […] Knockdowns performed with siRNAs to either a nonspecific control or EGFR had no effect on the enhancement of IL-6 production.
Will LL-29 affect the use of the FPRL-1 receptor by the LL-37/poly(I:C) complex? BEAS-2B cells knocked down for FPRL-1 were treated with LL-37 along with additional concentrations of LL-37, Pentamide, LL-29, Peptide A, or LL8-37 (FIG. 6C). Signaling by TLR3 was determined by the amount of IL-6 secreted in the cell culture media. A control siRNA had no effect on WT LL-37/poly(I:C) enhancement of IL-6 production.
LL-37 uses the Formyl peptide receptor-like 1 (FPRL-1) receptor to deliver nucleic acids into endosomes, where activation of the Toll-like receptors that recognize nucleic acids takes place (Singh et al., 2014). We sought to determine whether the LL-37 orthologs from other mammals could also use the FPRL-1 in the human BEAS-2B cells to deliver dsRNA. BEAS-2B cells were treated with poly(I:C) along with the peptides and the peptides from pig, sheep, rabbit, and mouse had reduced ability to use the FPRL-1 to activate IL-6 production.

TLR4 signaling = experiment: IL-6 production (ELISA) in BEAS-2B cells induced with LPS; assay type: cell-based, human
Experimental: as §1, §2

[3] = tested on: LL-37 enhancement of TLR3 signaling; experiment: Antagonism of LL-37/poly(I:C)-enhanced IL-6 production in BEAS-2B cells; assay type: cell-based, human
Experimental: as §1
We examined whether LL-29 could affect the enhancement of TLR3 signaling by WT LL-37/poly(I:C). An increasing amount of LL-29 along with a constant amount of LL-37/poly(I:C) was used to assess IL-6 production in BEAS-2B cells. […] That is, LL-29 abrogated LL-37's ability to enhance TLR3 signaling. That is, LL-29 is an example of a peptide antagonist of LL-37 function.

TLR3 = experiment: Confocal microscopy, co-localization with TLR3 in BEAS-2B cells; assay type: cell-based, human
Experimental: Cells were grown on poly-L-lysine coated coverslips to 60% confluency. After 1 h incubation with fluorescently-labeled peptides in the absence or presence of poly(I:C), the cells were washed with PBS and fixed with 4% paraformaldehyde for 15 min at room temperature. The cells were again washed with PBS and mounted on glass slides with anti-fade mounting medium and DAPI (Life Technology), then dried overnight in the dark. Micrographs were acquired with a Leica TCS SP5 confocal inverted-base microscope with a 63× oil objective. Images were analyzed by Leica LAS AF and Image J software. Colocalization of fluorophores was quantified using the Image J plug-in tool JACoP (16).
We examined whether it could prevent the trafficking of LL-37/poly(I:C) to endosomes that harbor TLR3. Confocal microscopy was used to examine the effect of LL-29 on the colocalization of LL-37/poly(I:C) with TLR3 in BEAS-2B cells.

poly(I:C) = experiment: Fluorescence polarization, peptide binding to poly(I:C)
Experimental: as §3
LL-37 accompanies dsRNA to endosomes containing TLR3. However, it is unknown whether LL-37 will release the dsRNA in endosomes. Johansson et al. (1998) have previously determined that a neutral pH is required for the activity of LL-37. We seek to determine whether LL-37 binding to dsRNA can be affected by pH.

## CC[C@H](C)[C@H](NC(=O)[C@H](CCCCN)NC(=O)[C@H](CCC(=O)O)NC(=O)[C@H](CCCCN)NC(=O)[C@H](CO)NC(=O)[C@H](CCCCN)NC(=O)[C@H](CCCNC(=N)N)NC(=O)[C@H](Cc1ccccc1)NC(=O)[C@H](Cc1ccccc1)NC(=O)[C@H](CC(=O)O)NC(=O)CNC(=O)[C@H](CC(C)C)NC(=O)[C@@H](N)CC(C)C)C(=O)NCC(=O)N[C@@H](CCCCN)C(=O)N[C@@H](CCC(=O)O)C(=O)N[C@@H](Cc1ccccc1)C(=O)N[C@@H](CCCCN)C(=O)N[C@@H](CCCNC(=N)N)C(=O)N[C@H](C(=O)N[C@H](C(=O)N[C@@H](CCC(N)=O)C(=O)N[C@@H](CCCNC(=N)N)C(=O)N[C@H](C(=O)N[C@@H](CCCCN)C(=O)N[C@@H](CC(=O)O)C(=O)N[C@@H](Cc1ccccc1)C(=O)N[C@@H](CC(C)C)C(=O)N[C@@H](CCCNC(=N)N)C(=O)N[C@@H](CC(N)=O)C(=O)N[C@@H](CC(C)C)C(=O)N[C@H](C(=O)N1CCC[C@H]1C(=O)N[C@@H](CCCNC(=N)N)C(=O)N[C@H](C(=O)N[C@@H](CCC(=O)O)C(=O)N[C@@H](CO)C(=O)O)[C@@H](C)O)C(C)C)[C@@H](C)CC)C(C)C)[C@@H](C)CC [LL-37]
In vitro
  half-life: ~60 min
In vitro; cells or culture medium
  half-life: ~60 min

## CAP-18: LL-37 ortholog from rabbit, SEQ ID NO: 24 (GLRKRLRKFRNKIKEKLKKIGQKIQGLLPKLAPRTDY; (1)..(37) Rabbit CAP-18)
Toll-like receptor 9
  Induction of signaling by the ssDNA ligand for Toll-like receptor 9, in words: failed to induce signaling
Reovirus dsRNA, Reo S4
  Enhancement of IL-6 production / signaling by Reo S4, in words: failed to enhance signaling
TLR3 signaling; BEAS-2B cells
  Enhancement of TLR3 signaling / poly(I:C)-induced IL-6, in words: failed to enhance signaling

## LLGDFFRKSKEKIGKEFKRIVQRIKDFLR ((1)..(29) LL29; listed as Homo sapiens) [LL-29]
[1]; peptide 10 μg/ml, antibiotic: None
  MIC assay result, peptide without antibiotic: growth
[1]; peptide final conc. 10 μg/ml
  MIC (μg/ml) of Doxorubicin in the presence of peptide: ≤0.06 µg/mL
  MIC (μg/ml) of Kanamycin in the presence of peptide: ≤0.5 µg/mL
  MIC (μg/ml) of Trimethoprim in the presence of peptide: ≤0.06 µg/mL
[1]; with doxorubicin, kanamycin, trimethoprim
  Improvement of the MIC of antibiotics by peptide: at least 4 fold
f-LL37
  Interaction with fLL-37, in words: interacted with fLL-37 to the same degree as LL-37; also recorded: comparable ability to interact with fLL-37
[2]; 1.0 μM peptide, phosphate buffer pH 5.8
  Hydrodynamic radius (nm) pH 5.8: 8 nm
[2]; 1.0 μM peptide, phosphate buffer pH 7.4
  Hydrodynamic radius (nm) pH 7.4: 1106 nm
[2]; acidification of phosphate buffer
  pH-dependent dissociation of peptide particles, in words: readily dissociated into nanometer-sized particles; also recorded: dissociated as a function of pH
FPRL-1 receptor; knockdown of either FPRL-1 or EGFR
  IL-6 production, peptide with poly(I:C), in words: did not enhance IL-6 production
FPRL-1 receptor; siRNA to FPRL-1 or nonspecific control
  IL-6 production, peptide added along with LL-37 and poly(I:C), in words: resulted in a reduction in IL-6 levels
TLR4 signaling; BEAS-2B cells
  Suppression of TLR4 signaling / LPS-induced IL-6, in words: retained the ability to suppress TLR4 signaling in response to LPS
TLR4 signaling; BEAS-2B cells induced with 1.0 μg/ml of LPS, LL-37 100
  IL-6 production (%) LPS-depend.: 143 ± 18%
TLR4 signaling; four molar excess of LL-29 to LL-37, BEAS-2B cells
  IL-6 production in response to LPS, % of the control level without either of the two peptides: 64%
TLR3 signaling; BEAS-2B cells induced with 130 ng/ml of poly(I:C), LL-37 100
  IL-6 production (%) poly(I:C)-depend.: 47 ± 3%
[3]; four molar excess of LL-29 relative to LL-37
  IL-6 production with LL-37/poly(I:C) at four molar excess of peptide, in words: comparable to the level observed in the absence of LL-37
[3]; peptide added with LL-37/poly(I:C), BEAS-2B cells
  Antagonism of LL-37 enhancement of TLR3 signaling (IL-6), in words: reduced the enhancement of TLR3 signaling by LL-37 in a concentration-dependent manner
TLR3; added to fLL-37 and poly(I:C)
  Effect of added peptide on co-localization of fLL-37 and TLR3, in words: reduced the co-localization between fLL-37 and TLR3

## fLL-37: 5′ carboxyfluorescein coupled to the N-terminus of LL-37 [reference compound]
poly(I:C)
  Binding to poly(I:C)/dsRNA in fluorescent polarization assay, in words: polarization increased as a function of poly(I:C) concentration
TLR3; with poly(I:C)
  Co-localization of peptide with TLR3, in words: found to colocalize with TLR3
